Data on 1 compound can be found in US8889708B2 (Boehringer Ingelheim International GmbH, priority 2013, dated 2014).

In general, IC50 refers to the midpoint of a concentration-inhibition curve.

One assay addresses recombinant human DPPI (Homo sapiens (Human), UniProt P53634). Description: Inhibition of Human DPPI (Cathepsin C). To be noted: substrate Gly-Arg-AMC, 30 min room temperature. Type of assay: biochemical. From the text:
Inhibition of Human DPPI (Cathepsin C)
Materials: Microtiterplates (Optiplate-384 F) were purchased from PerkinElmer (Prod. No. 6007270). The substrate Gly-Arg-AMC was from Biotrend (Prod.-No. 808756 Custom peptide). Bovine serum albumin (BSA; Prod. No. A3059) and Dithiothreitol (DTT; Prod. No D0632) were from Sigma. TagZyme buffer was from Riedel-de-Haen (Prod.-No. 04269), NaCl was from Merck (Prod.-No. 1.06404.1000) and morpholinoethane sulfonic acid (MES), was from Serva (Prod.-No. 29834). The DPP1 inhibitor Gly-Phe-DMK was purchased from MP Biomedicals (Prod.-No. 03DK00625). The recombinant human DPPI was purchased from Prozymex. All other materials were of highest grade commercially available.
The following buffers were used: MES buffer: 25 mM MES, 50 mM NaCl, 5 mM DTT, adjusted to pH 6.0, containing 0.1% BSA; TAGZyme Buffer: 20 mM NaH2PO4, 150 mM NaCl adjusted to pH 6.0 with HCl
The recombinant human DPPI was diluted in TAGZyme buffer to 1 U/ml (38.1 μg/ml, respectively), and then activated by mixing in a 1:2 ratio with a Cysteamine aqueous solution (2 mM) and incubating for 5 min at room temperature.
Five uL test compound (final concentration 0.1 nM to 100 μM) in aqua bidest (containing 4% DMSO, final DMSO concentration 1%) were mixed with 10 μL of DPPI in MES buffer (final concentration 0.0125 ng/μL) and incubated for 10 min. Then, 5 μL of substrate in MES buffer (final concentration 50 μM) were added. The microtiter plates were then incubated at room temperature for 30 min. Then, the reaction was stopped by adding 10 μL of Gly-Phe-DMK in MES-buffer (final concentration 1 μM). The fluorescence in the wells was determined using a Molecular Devices SpectraMax M5 Fluorescence Reader (Ex 360 nm, Em 460 nm) or an Envision Fluorescence Reader (Ex 355 nm, Em 460 nm).
Each assay microtiter plate contained wells with vehicle controls (1% DMSO in bidest+0.075% BSA) as reference for non-inhibited enzyme activity (100% Ctl; high values) and wells with inhibitor (Gly-Phe-DMK, in bidest+1% DMSO+0.075% BSA, final concentration 1 μM) as controls for background fluorescence (0% Ctl; low values).
The analysis of the data was performed by calculating the percentage of fluorescence in the presence of test compound in comparison to the fluorescence of the vehicle control after subtracting the background fluorescence using the following formula: (RFU(sample)−RFU(background))*100/(RFU(control)−RFU(background))
Data from these calculations were used to generate IC50 values for inhibition of DPPI, respectively.

The target of assay [1] is recombinant human Cathepsin K (Homo sapiens (Human), UniProt P43235). Description: Inhibition of Human Cathepsin K. Type of assay: biochemical. To be noted: substrate Z-Gly-Pro-Arg-AMC, 60 min room temperature. The source says: Inhibition of Human Cathepsin K Materials: Microtiterplates (Optiplate-384 F were purchased from PerkinElmer (Prod. No. 6007270). The substrate Z-Gly-Pro-Arg-AMC was from Biomol (Prod.-No. P-142). L-Cysteine (Prod. No. 168149) was from Sigma. Sodium actetate was from Merck (Prod.-No. 6268.0250), EDTA was from Fluka (Prod.-No. 03680). The inhibitor E-64 was purchased from Sigma (Prod.-No. E3132). The recombinant human Cathepsin K proenzyme was purchased from Biomol (Prod. No. SE-367). All other materials were of highest grade commercially available.
Sequence of recombinant human Cathepsin K (P43235 115-329): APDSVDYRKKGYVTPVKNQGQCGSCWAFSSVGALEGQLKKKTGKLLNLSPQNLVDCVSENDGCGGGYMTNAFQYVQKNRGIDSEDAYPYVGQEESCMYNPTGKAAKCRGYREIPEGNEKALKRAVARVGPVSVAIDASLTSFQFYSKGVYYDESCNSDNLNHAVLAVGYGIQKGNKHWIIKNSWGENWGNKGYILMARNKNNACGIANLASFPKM
The following buffers were used: Activation buffer: 32.5 mM sodium acetate, adjusted to pH 3.5 with HCl; Assay buffer: 150 mM sodium acetate, 4 mM EDTA, 20 mM L-Cysteine, adjusted to pH 5.5 with HCl,
To activate the proenzyme, 5 μl procathepsin K were mixed with 1 ul activation buffer, and incubated at room temperature for 30 min.
5 μL test compound (final concentration 0.1 nM to 100 μM) in aqua bidest (containing 4% DMSO, final DMSO concentration 1%) were mixed with 10 uL of Cathepsin K in assay buffer (final concentration 2 ng/μL) and incubated for 10 min. Then 5 μL of substrate in assay buffer (final concentration 12.5 μM) were added. The plates were then incubated at room temperature for 60 min. Then, the reaction was stopped by adding 10 μL of E64 in assay buffer (final concentration 1 μM). The fluorescence in the wells was determined using a Molecular Devices SpectraMax M5 Fluorescence Reader (Ex 360 nm, Em 460 nm).
Each assay microtiter plate contains wells with vehicle controls (1% DMSO in bidest) as reference for non-inhibited enzyme activity (100% Ctl; high values) and wells with inhibitor (E64 in bidest+1% DMSO, final concentration 1 μM) as controls for background fluorescence (0% Ctl; low values). The analysis of the data was performed by calculating the percentage of fluorescence in the presence of test compound in comparison to the fluorescence of the vehicle control after subtracting the background fluorescence: (RFU(sample)−RFU(background))*100/(RFU(control)−RFU(background))
Data from these calculations were used to generate IC50 values for inhibition of Cathepsin K, respectively.

Sequence of recombinant human DPPI (P53634 231-394): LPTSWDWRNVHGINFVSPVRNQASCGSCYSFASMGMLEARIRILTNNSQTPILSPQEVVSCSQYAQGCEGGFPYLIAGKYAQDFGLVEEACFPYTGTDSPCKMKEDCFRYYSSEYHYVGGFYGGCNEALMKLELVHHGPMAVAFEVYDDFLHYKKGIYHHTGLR
Sequence of recombinant human DPPI (P53634 395-463): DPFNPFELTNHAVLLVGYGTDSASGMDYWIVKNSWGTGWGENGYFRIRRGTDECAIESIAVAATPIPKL
Sequence of recombinant human DPPI (P53634 25-134): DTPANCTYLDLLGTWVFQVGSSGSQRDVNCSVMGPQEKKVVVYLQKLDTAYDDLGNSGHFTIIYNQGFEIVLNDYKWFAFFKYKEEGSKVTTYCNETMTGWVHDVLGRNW

Regarding `CN1C(=O)Cc2ccc(-c3ccc(C[C@@H](C#N)NC(=O)[C@@]45CCO[C@@H](CN4)C5)cc3)cc21` [Example 5], the IC50 at recombinant human DPPI is 50.3 nM; in assay [1] it was over 30000 nM.
